Assay results reported in patent publication US20070128217A1 (priority 2003, published 2007).

Key:
[1] = test system: antibodies in sera from SARS patients (sera 1a, 1b, 2, 6, 37, 62, London, SARS-yellow, SARS-green); format: binding, human; set-up: Binding of serum 6 to linear peptides of protein X1 of SARS-CoV Urbani / Binding of serum 37 to linear peptides of protein X1 of SARS-CoV Urbani / Binding of serum 6 to looped/cyclic peptide (PEPSCAN-ELISA) / Binding of serum 37 to looped/cyclic peptide (PEPSCAN-ELISA) / Binding of serum 37 to looped/cyclic peptides of protein X1 of SARS-CoV Urbani / Binding of serum 6 to linear peptides of protein X2 / Binding of serum 37 to linear peptides of protein X2 / Binding of serum 37 to looped/cyclic peptides of protein X2 of SARS-CoV Urbani / Binding of serum 6 to linear peptides of protein M of SARS-CoV Urbani / Binding of serum 37 to linear peptides of protein M of SARS-CoV Urbani / Binding of serum 6 to looped/cyclic peptides of protein M of SARS-CoV Urbani / Binding of serum 37 to looped/cyclic peptides of protein M of SARS-CoV Urbani / Binding of serum 6 to linear peptides of protein X3 of SARS-CoV Urbani / Binding of serum 37 to linear peptides of protein X3 of SARS-CoV Urbani / Binding of serum 37 to looped/cyclic peptides of protein X3 of SARS-CoV Urbani / Binding of serum 6 to linear peptides of protein X4 of SARS-CoV Urbani / Binding of serum 37 to linear peptides of protein X4 of SARS-CoV Urbani / Binding of serum 37 to looped/cyclic peptides of protein X4 of SARS-CoV Urbani / Binding of serum 6 to linear peptides of protein X5 of SARS-CoV Urbani / Binding of serum 37 to linear peptides of protein X5 of SARS-CoV Urbani / Binding of serum 37 to looped/cyclic peptides of protein X5 of SARS-CoV Urbani / Binding of serum 6 to linear peptides of protein N of SARS-CoV Urbani / Binding of serum 37 to linear peptides of protein N of SARS-CoV Urbani / Binding of serum 6 to linear peptide (PEPSCAN-ELISA) / Binding of serum 1a to looped/cyclic peptides of protein N of SARS-CoV Urbani / Binding of serum 1b to looped/cyclic peptides of protein N of SARS-CoV Urbani / Binding of serum 2 to looped/cyclic peptides of protein N of SARS-CoV Urbani / Binding of serum 6 to looped/cyclic peptides of protein N of SARS-CoV Urbani / Binding of serum 37 to looped/cyclic peptides of protein N of SARS-CoV Urbani / Binding of serum 62 to looped/cyclic peptides of protein N of SARS-CoV Urbani / Binding of serum London to looped/cyclic peptides of protein N of SARS-CoV Urbani / Binding of serum SARS-green to looped/cyclic peptides of protein N of SARS-CoV Urbani: unit not given here
[2] = test system: control sera (pooled serum of ten healthy LUMC hospital workers; commercial negative donor pooled serum from the Dutch bloodbank); format: binding, human; set-up: Binding of Control serum LUMC to linear peptides / Binding of Control serum Blood-bank to linear peptides / Binding of Control serum LUMC to looped peptides / Binding of Control Serum Blood-Bank to Looped peptides / Binding of Control serum LUMC to linear peptides of the protein M of SARS-CoV Urbani / Binding of Control serum Blood-bank to linear peptides of the protein M of SARS-CoV Urbani / Binding of Control serum LUMC to looped peptides of the protein M of SARS-CoV Urbani / Binding of Control Serum Blood-Bank to Looped peptides of the protein M of SARS-CoV Urbani: unit not given here
[3] = test system: rabbit serum obtained by immunizing a rabbit with the SARS-CoV strain Frankfurt 1; format: binding; set-up: Binding of a rabbit serum to linear peptides / Binding of a rabbit serum to looped peptides / Rabbit serum linear peptides / Rabbit serum looped peptides / Binding of a rabbit serum to linear peptides of protein N of SARS-CoV Urbani (Rabbit serum linear peptides) / Binding of a rabbit serum to looped/cyclic peptides of protein N of SARS-CoV Urbani (Rabbit serum looped peptides): unit not given here

Sequence	Binding of Control Serum Blood-Bank to Looped peptides [2]	Binding of Control serum Blood-bank to linear peptides [2]	Binding of Control serum LUMC to linear peptides [2]	Binding of Control serum LUMC to looped peptides [2]	Rabbit serum linear peptides [3]	Rabbit serum looped peptides [3]	Binding of serum 1a to linear peptides of protein X2 [1]	Binding of serum 1a to looped/cyclic peptides of protein X2 of SARS-CoV Urbani [1]	Binding of serum 1b to linear peptides of protein X2 [1]	Binding of serum 1b to looped/cyclic peptides of protein X2 of SARS-CoV Urbani [1]	Binding of serum 2 to linear peptides of protein X2 [1]	Binding of serum 2 to looped/cyclic peptides of protein X2 of SARS-CoV Urbani [1]	Binding of serum 6 to linear peptides of protein X2 [1]	Binding of serum 6 to looped/cyclic peptides of protein X2 of SARS-CoV Urbani [1]	Binding of serum 37 to linear peptides of protein X2 [1]	Binding of serum 37 to looped/cyclic peptides of protein X2 of SARS-CoV Urbani [1]	Binding of serum 62 to linear peptides of protein X2 [1]	Binding of serum 62 to looped/cyclic peptides of protein X2 of SARS-CoV Urbani [1]	Binding of serum London to linear peptides of protein X2 [1]	Binding of serum London to looped/cyclic peptides of protein X2 of SARS-CoV Urbani [1]	further results
LFLTLIVFTSCELYH	0.9	0.7	0.7	0.9	0.7	0.4	–	–	–	–	–	–	–	–	–	–	–	–	–	–	Binding of serum 1a to linear peptides of protein X4 of SARS-CoV Urbani [1]: 0.7; Binding of serum 1a to looped/cyclic peptides of protein X4 of SARS-CoV Urbani [1]: 0.9; Binding of serum 1b to linear peptides of protein X4 of SARS-CoV Urbani [1]: 0.7; Binding of serum 1b to looped/cyclic peptides of protein X4 of SARS-CoV Urbani [1]: 0.8; Binding of serum 2 to linear peptides of protein X4 of SARS-CoV Urbani [1]: 0.5; Binding of serum 2 to looped/cyclic peptides of protein X4 of SARS-CoV Urbani [1]: 0.8; Binding of serum 6 to linear peptides of protein X4 of SARS-CoV Urbani [1]: 0.5; Binding of serum 6 to looped/cyclic peptides of protein X4 of SARS-CoV Urbani [1]: 0.7; Binding of serum 37 to linear peptides of protein X4 of SARS-CoV Urbani [1]: 0.7; Binding of serum 37 to looped/cyclic peptides of protein X4 of SARS-CoV Urbani [1]: 0.9; Binding of serum 62 to linear peptides of protein X4 of SARS-CoV Urbani [1]: 0.7; Binding of serum 62 to looped/cyclic peptides of protein X4 of SARS-CoV Urbani [1]: 0.9; Binding of serum London to linear peptides of protein X4 of SARS-CoV Urbani [1]: 0.6; Binding of serum London to looped/cyclic peptides of protein X4 of SARS-CoV Urbani [1]: 0.3; Binding of serum SARS-green to linear peptides of protein X4 of SARS-CoV Urbani [1]: 0.7; Binding of serum SARS-green to looped/cyclic peptides of protein X4 of SARS-CoV Urbani [1]: 0.7; Binding of serum SARS-yellow to linear peptides of protein X4 of SARS-CoV Urbani [1]: 0.6; Binding of serum SARS-yellow to looped/cyclic peptides of protein X4 of SARS-CoV Urbani [1]: 0.6
LGKVLPFHRWHTMVQ	0.4	0.8	0.5	0.4	0.5	0.3	–	–	–	–	–	–	–	–	–	–	–	–	–	–	Binding of serum 1a to linear peptides of protein X5 of SARS-CoV Urbani [1]: 0.7; Binding of serum 1a to looped/cyclic peptides of protein X5 of SARS-CoV Urbani [1]: 0.6; Binding of serum 1b to linear peptides of protein X5 of SARS-CoV Urbani [1]: 0.4; Binding of serum 1b to looped/cyclic peptides of protein X5 of SARS-CoV Urbani [1]: 0.3; Binding of serum 2 to linear peptides of protein X5 of SARS-CoV Urbani [1]: 0.6; Binding of serum 2 to looped/cyclic peptides of protein X5 of SARS-CoV Urbani [1]: 0.2; Binding of serum 6 to linear peptides of protein X5 of SARS-CoV Urbani [1]: 0.5; Binding of serum 6 to looped/cyclic peptides of protein X5 of SARS-CoV Urbani [1]: 0.3; Binding of serum 37 to linear peptides of protein X5 of SARS-CoV Urbani [1]: 0.6; Binding of serum 37 to looped/cyclic peptides of protein X5 of SARS-CoV Urbani [1]: 0.5; Binding of serum 62 to linear peptides of protein X5 of SARS-CoV Urbani [1]: 0.6; Binding of serum 62 to looped/cyclic peptides of protein X5 of SARS-CoV Urbani [1]: 0.3; Binding of serum London to linear peptides of protein X5 of SARS-CoV Urbani [1]: 0.6; Binding of serum London to looped/cyclic peptides of protein X5 of SARS-CoV Urbani [1]: 0.2; Binding of serum SARS-green to linear peptides of protein X5 of SARS-CoV Urbani [1]: 0.4; Binding of serum SARS-green to looped/cyclic peptides of protein X5 of SARS-CoV Urbani [1]: 0.2; Binding of serum SARS-yellow to linear peptides of protein X5 of SARS-CoV Urbani [1]: 0.2; Binding of serum SARS-yellow to looped/cyclic peptides of protein X5 of SARS-CoV Urbani [1]: 0.2
LHKLLQTLVLKMLHS	0.8	0.5	0.3	0.7	–	–	0.6	0.6	0.0	0.5	0.4	0.4	0.3	0.6	0.4	0.4	0.5	0.6	0.4	1.0	Binding of serum SARS-green to linear peptides of protein X2 [1]: 0.6; Binding of serum SARS-green to looped/cyclic peptides of protein X2 of SARS-CoV Urbani [1]: 0.4; Binding of serum SARS-yellow to linear peptides of protein X2 [1]: 0.3; Binding of serum SARS-yellow to looped/cyclic peptides of protein X2 of SARS-CoV Urbani [1]: 0.7; Binding of a rabbit serum to linear peptides [3]: 0.2; Binding of a rabbit serum to looped peptides [3]: 0.4
LHSSSLTSLLKTHRM	0.4	0.7	0.4	0.4	–	–	0.6	0.4	0.5	0.4	0.4	0.3	0.5	0.2	0.5	0.3	0.5	0.4	0.6	0.2	Binding of serum SARS-green to linear peptides of protein X2 [1]: 0.6; Binding of serum SARS-green to looped/cyclic peptides of protein X2 of SARS-CoV Urbani [1]: 0.3; Binding of serum SARS-yellow to linear peptides of protein X2 [1]: 0.6; Binding of serum SARS-yellow to looped/cyclic peptides of protein X2 of SARS-CoV Urbani [1]: 0.3; Binding of a rabbit serum to linear peptides [3]: 0.2; Binding of a rabbit serum to looped peptides [3]: 0.4
